# Reference: patent US8674095B2, “Compounds for treating neuropsychiatric conditions” (Afraxis Holdings, Inc., priority 2008, dated 2014)
# Experiments:
# PAK1 = PAK1 (Homo sapiens, UniProt Q13153); assay: Z'Lyte fluorescence-based (FRET) kinase assay, PAK1; assay type: biochemical; conditions: 50 μM ATP (Km apparent), 1 hr room temperature, 1% DMSO
# Protocol: (§1) A fluorescence-based assay format is used to determine IC50 values of test compounds in vitro. Purified PAK kinase is incubated with ATP, and a test compound at various concentrations and a substrate peptide containing two fluorophores. In a second step, the reaction mix is incubated with a site-specific protease that cleaves non-phosphorylated but not phosphorylated substrate peptide, disrupting the FRET signal generated by the two fluorophores in the cleaved peptide (Z′Lyte™ Kinase assay platform; Life Technologies).
# (§2) Reagents: 50 mM HEPES, pH 7.5; 0.01% BRIJ-35; 10 mM MgCl2; 1 mM EGTA, 2 uM substrate peptide Ser/Thr20 (proprietary Life Technologies Sequence), PAK enzyme [2.42-30.8 ng for PAK1, 0.29-6 ng for PAK2, 1.5-20 ng for PAK3 and 0.1-0.86 ng for PAK4; actual enzyme amounts depend on lot activity of the enzyme preparation]
# (§3) Test compounds are dissolved in DMSO at various concentrations; the final DMSO concentration in the assay reaction is 1%.
# (§4) ATP concentration at Km apparent is used in the assay [50 μM ATP for PAK1 assay, 75 μM ATP for PAK2 assay, 100 μM ATP for PAK3 assay, 5 μM ATP for PAK-4 assay] in a total assay volume of […] Assay reactions are incubated at room temperature for 1 hr. Following the kinase reaction, 5 μl of 1:256 dilution of development solution A (Life Technologies) is added and the reaction mix is incubated for an additional 1 hr at room temperature.
# (§5) Plates are analyzed in a standard fluorescence plate reader (Tecan or equivalent) using an excitation wavelength of 400 nm and emission wavelengths of 445 nm and 520 nm. Inhibition of kinase reaction is determined by emission ratio=emission@445 nm/emission@520 nm
# PAK2 = PAK2 (Homo sapiens, UniProt Q13177); assay: Z'Lyte fluorescence-based (FRET) kinase assay, PAK2; assay type: biochemical; conditions: 75 μM ATP (Km apparent), 1 hr room temperature, 1% DMSO
# Protocol: as §1, §2, §3, §4, §5
# PAK3 = PAK3 (Homo sapiens, UniProt O75914); assay: Z'Lyte fluorescence-based (FRET) kinase assay, PAK3; assay type: biochemical; conditions: 100 μM ATP (Km apparent), 1 hr room temperature, 1% DMSO
# Protocol: as §1, §2, §3, §4, §5
# PAK4 = PAK4 (Homo sapiens, UniProt O96013); assay: Z'Lyte fluorescence-based (FRET) kinase assay, PAK4; assay type: biochemical; conditions: 5 μM ATP (Km apparent), 1 hr room temperature, 1% DMSO
# Protocol: as §1, §2, §3, §4, §5
# PAK1, PAK2, PAK3, PAK-4 = assay: PAK isoform inhibition profile of example compounds; assay type: biochemical; conditions: classification of example compounds in the description; underlying IC50 data in Table 8
# From the text: In some embodiments, the PAK inhibitor is a Group I PAK inhibitor that inhibits, for example, one or more Group I PAK polypeptides, for example, PAK1, PAK2, and/or PAK3. […] In some embodiments, the PAK inhibitor is a PAK2 inhibitor. In some embodiments, the PAK inhibitor is a PAK3 inhibitor. In some embodiments, the PAK inhibitor is a mixed PAK1/PAK3 inhibitor. […] In some embodiments, the PAK inhibitor is a Group II PAK inhibitor that inhibits one or more Group II PAK polypeptides, for example PAK-4, PAK5, and/or PAK6. In some embodiments, the PAK inhibitor is a PAK4 inhibitor. In some embodiments, the PAK inhibitor is a PAK5 inhibitor. In some embodiments, the PAK inhibitor is a PAK6 inhibitor.
# as §1, §2, §3, §4, §5
# [1] = test system: Wistar rat pups injected with tetanus toxin; conditions: in vivo
# Chain of PAK1 (Q13153 whole entry): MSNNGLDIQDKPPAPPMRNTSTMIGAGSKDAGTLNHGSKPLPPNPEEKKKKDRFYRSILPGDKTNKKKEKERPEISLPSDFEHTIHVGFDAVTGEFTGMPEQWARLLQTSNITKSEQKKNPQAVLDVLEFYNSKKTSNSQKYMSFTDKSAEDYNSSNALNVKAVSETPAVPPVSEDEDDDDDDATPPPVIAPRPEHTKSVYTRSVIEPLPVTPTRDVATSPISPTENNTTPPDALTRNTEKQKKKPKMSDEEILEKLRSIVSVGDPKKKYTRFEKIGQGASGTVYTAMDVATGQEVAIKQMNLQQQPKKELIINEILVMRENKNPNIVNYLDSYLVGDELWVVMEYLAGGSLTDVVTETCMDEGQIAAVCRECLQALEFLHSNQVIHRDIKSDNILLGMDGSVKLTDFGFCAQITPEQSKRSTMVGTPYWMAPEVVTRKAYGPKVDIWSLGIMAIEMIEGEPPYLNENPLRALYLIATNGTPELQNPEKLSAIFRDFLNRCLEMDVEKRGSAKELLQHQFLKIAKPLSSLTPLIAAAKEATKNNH
# Chain of PAK3 (O75914 whole entry): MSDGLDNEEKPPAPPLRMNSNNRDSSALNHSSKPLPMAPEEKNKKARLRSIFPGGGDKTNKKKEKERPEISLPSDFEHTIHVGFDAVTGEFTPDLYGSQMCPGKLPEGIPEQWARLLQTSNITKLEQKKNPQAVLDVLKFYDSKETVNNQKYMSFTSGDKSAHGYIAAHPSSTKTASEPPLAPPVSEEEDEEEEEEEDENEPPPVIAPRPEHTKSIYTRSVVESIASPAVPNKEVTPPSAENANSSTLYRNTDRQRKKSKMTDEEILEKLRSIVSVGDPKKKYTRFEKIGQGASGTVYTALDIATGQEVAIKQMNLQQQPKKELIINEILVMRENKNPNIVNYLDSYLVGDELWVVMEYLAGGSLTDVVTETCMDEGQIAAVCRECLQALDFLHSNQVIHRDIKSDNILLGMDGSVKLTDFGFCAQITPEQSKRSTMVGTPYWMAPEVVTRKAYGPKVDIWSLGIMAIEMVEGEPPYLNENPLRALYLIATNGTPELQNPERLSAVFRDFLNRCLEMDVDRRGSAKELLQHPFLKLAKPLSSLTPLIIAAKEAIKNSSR
# Chain of PAK4 (O96013 whole entry): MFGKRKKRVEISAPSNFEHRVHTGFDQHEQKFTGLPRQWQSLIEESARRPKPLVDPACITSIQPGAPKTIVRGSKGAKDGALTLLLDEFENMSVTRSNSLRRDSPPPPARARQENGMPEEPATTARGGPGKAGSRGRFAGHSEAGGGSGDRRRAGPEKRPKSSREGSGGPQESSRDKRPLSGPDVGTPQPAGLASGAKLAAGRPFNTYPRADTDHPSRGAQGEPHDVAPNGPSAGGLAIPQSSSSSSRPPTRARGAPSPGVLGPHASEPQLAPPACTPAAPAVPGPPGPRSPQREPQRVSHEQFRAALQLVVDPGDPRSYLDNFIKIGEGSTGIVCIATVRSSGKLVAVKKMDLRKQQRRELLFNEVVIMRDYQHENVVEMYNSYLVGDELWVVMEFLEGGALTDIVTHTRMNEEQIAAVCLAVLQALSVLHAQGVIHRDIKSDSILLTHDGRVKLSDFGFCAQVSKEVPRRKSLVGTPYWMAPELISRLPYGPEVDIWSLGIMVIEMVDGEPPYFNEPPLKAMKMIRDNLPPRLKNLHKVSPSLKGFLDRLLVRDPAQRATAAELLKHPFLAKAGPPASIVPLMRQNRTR
# Chain of PAK2 (Q13177 whole entry): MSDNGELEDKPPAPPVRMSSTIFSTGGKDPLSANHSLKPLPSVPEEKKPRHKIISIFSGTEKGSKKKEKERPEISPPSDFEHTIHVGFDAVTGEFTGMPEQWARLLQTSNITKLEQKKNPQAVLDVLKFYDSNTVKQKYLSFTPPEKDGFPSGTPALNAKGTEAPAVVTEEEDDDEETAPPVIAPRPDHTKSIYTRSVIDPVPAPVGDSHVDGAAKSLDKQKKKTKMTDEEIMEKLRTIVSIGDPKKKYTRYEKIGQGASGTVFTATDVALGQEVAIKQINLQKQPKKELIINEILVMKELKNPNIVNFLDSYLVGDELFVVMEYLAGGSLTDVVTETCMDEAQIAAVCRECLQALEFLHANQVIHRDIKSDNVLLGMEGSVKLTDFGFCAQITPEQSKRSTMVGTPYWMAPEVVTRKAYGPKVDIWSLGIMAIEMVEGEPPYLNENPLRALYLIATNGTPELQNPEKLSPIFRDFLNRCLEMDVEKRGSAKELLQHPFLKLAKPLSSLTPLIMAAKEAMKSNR
SMILES,IC50 (PAK1),IC50 (PAK2),IC50 (PAK3),IC50 (PAK4),"PAK inhibitor type (isoform profile) (PAK1, PAK2, PAK3, PAK-4)",Effect on seizures [1]
CN1CCN(c2ccc(Nc3ncc4ccc(=O)n([C@H]5CCCc6ccccc65)c4n3)cc2)CC1 [Compound 12],< 1000 nM,1000 to 10000 nM,1000 to 10000 nM,1000 to 10000 nM,PAK1 inhibitor,reduce the frequency and severity of seizures
O=c1ccc2cnc(Nc3ccc(N4CCNCC4)c(F)c3)nc2n1Cc1ccccc1C(F)(F)F [Compound 62],< 1000 nM,< 1000 nM,< 1000 nM,< 1000 nM,mixed PAK1/PAK2/PAK3/PAK-4 inhibitor,
CN1CCN(c2ccc(Nc3ncc4ccc(=O)n(Cc5ccccc5-c5ccccc5)c4n3)cc2)CC1 [Compound 68],< 1000 nM,< 1000 nM,< 1000 nM,1000 to 10000 nM,"inhibits all three Group I PAK isoforms (PAK1, 2 and PAK3) with equal or similar potency",
Cc1ccc(F)cc1Cn1c(=O)ccc2cnc(Nc3ccc(N4CCN(C)CC4)cc3)nc21 [Compound 59],< 1000 nM,1000 to 10000 nM,1000 to 10000 nM,< 1000 nM,mixed PAK1/PAK-4 inhibitor,
CN1CCN(c2ccc(Nc3ncc4ccc(=O)n(Cc5ccccc5S(C)(=O)=O)c4n3)cc2)CC1 [Compound 72],< 1000 nM,< 1000 nM,< 1000 nM,< 1000 nM,mixed PAK1/PAK2/PAK3/PAK-4 inhibitor,
CN1CCN(c2ccc(Nc3ncc4ccc(=O)n(Cc5ccccc5N5CCOCC5)c4n3)cc2)CC1 [Compound 73],< 1000 nM,< 1000 nM,< 1000 nM,< 1000 nM,mixed PAK1/PAK2/PAK3/PAK-4 inhibitor,
CC(C)Oc1ccccc1Cn1c(=O)ccc2cnc(Nc3ccc(N4CCN(C)CC4)cc3)nc21 [Compound 69],< 1000 nM,< 1000 nM,< 1000 nM,< 1000 nM,mixed PAK1/PAK2/PAK3/PAK-4 inhibitor,
CN1CCN(c2ccc(Nc3ncc4ccc(=O)n(Cc5c(F)cccc5Br)c4n3)cc2)CC1 [Compound 79],< 1000 nM,< 1000 nM,< 1000 nM,< 1000 nM,mixed PAK1/PAK2/PAK3/PAK-4 inhibitor,
